Patent publication US10100008B2, “Immunostimulating agent” (AJINOMOTO CO., INC., priority 2014, dated 2018)
Where two headings read alike, the source gives them in different places.

Legend:
[1] = test system: Mouse macrophage-like cell line RAW; test: Immunostimulatory effect on mouse macrophage-like cell line (CCK-8 cell proliferation, Stimulation Index); format: cell-based; conditions: 24 hr, compared to well added only with medium
[2] = test system: Human monocyte cell line THP-1; test: Immunostimulatory effect on human monocyte cell line (CCK-8 cell proliferation, Stimulation Index); format: cell-based; conditions: 24 hr, compared to well added only with medium
[3] = test system: anti OVA-specific IgG1 subclass antibody; test: Adjuvant activity test: anti OVA-specific IgG1 subclass antibody in serum after subcutaneous immunization with OVA; format: in vivo, BALB/c mice; conditions: for production of anti OVA-specific IgG1 subclass antibody: dorsal-subcutaneous
Description: One week later, the secondary immunization was carried out by dorsal-subcutaneous administration of solutions similar to those of the above-mentioned (1) to (5) again. Two weeks from the secondary immunization, the whole blood and spleen were extracted under anesthesia, and the obtained serum sample was measured for anti OVA-specific IgG1 subclass antibody. A method for measurement of the anti OVA-specific IgG1 subclass antibody in Example 1, and the following Examples 2, 4, 7 to 10 and 13 to 16 is as follows.
To a 96 well plate was added 5 μg/ml OVA at 100 μl/well, and the mixture was incubated at 4° C. overnight. After incubation, the mixture was washed three times with 200 μl of PBS-T (PBS (phosphate buffered saline)+0.05% (v/v) Tween 20) per well, and blocked with 100 μl of 5% FCS (fatal calf serum)/PBS solution per well at room temperature for 1 to 2 hr. Thereafter, the mixture was washed three times with PBS-T (200 μl/well), a diluted serum sample (100 μl/well) or the same amount of 5% FCS/PBS solution as a control was added, and the mixture was incubated at 37° C. for 1 hr. Thereafter, the mixture was washed five times with PBS-T (200 μl/well), a diluted biotinylated anti-mouse IgG1 antibody (100 μl/well) was added, and the mixture was incubated at 37° C. for 45 min. Thereafter, the mixture was washed five times with PBS-T (200 μl/well), a diluted anti-biotin-HRP antibody was added (100 μl/well), and the mixture was incubated at 37° C. for another 30 min. Thereafter, the mixture was washed five times with PBS-T (200 μl/well), TMB substrate solution was added (100 μl/well), and the mixture was incubated at room temperature for 10 to 15 min. Thereafter, a reaction quenching liquid (2N sulfuric acid solution) was added (50 μl/well) to discontinue a color developing reaction, and the absorbance (OD Value=450 nm) was measured by a microplate reader.
One week later, the secondary immunization was carried out by dorsal-subcutaneous administration of solutions similar to those of the above-mentioned (1) to (6) again. Two weeks from the secondary immunization, the whole blood and spleen were extracted under anesthesia, and the obtained serum sample was measured for anti OVA-specific IgG1 subclass antibody.
8-Week-old female BALB/c mice were divided into groups (N=6), and each group was primarily immunized by dorsal-subcutaneous administration of (1) ovalbumin (OVA) ([…] administration group), (2) OVA (10 μg) and, as an adjuvant, N,N′-bis(2-heptylundecanoyl)-L-cystine dimethyl ester (SZ23) ([…]), (3) OVA (10 μg) and N,N′-bis(dodecanoyl)-L-cystine dimethyl ester (SZ24) ([…]), and (4) saline (saline single administration group), each per mouse. One week later, the secondary immunization was carried out by dorsal-subcutaneous administration of solutions similar to those of the above-mentioned (1) to (4) again. Two weeks from the secondary immunization, the whole blood was extracted under anesthesia, and the obtained serum sample was measured for anti OVA-specific IgG1 subclass antibody. SZ24 is disclosed in JP-A-4-230359, which is incorporated herein by reference in its entirety.
8-Week-old female BALB/c mice were divided into groups (N=6), and each group was primarily immunized by dorsal-subcutaneous administration of (1) ovalbumin (OVA) ([…] administration group), (2) OVA (10 μg) and, as an adjuvant, N,N′-bis(2-tetradecylhexadecanoyl)-L-cystine dimethyl ester (SZ37) (0.256 μmol) added to saline, (3) OVA (10 μg) and N,N′-bis(2-octadecyleicosanoyl)-L-cystine dimethyl ester (SZ38) (0.256 μmol) added to saline, (4) OVA (10 μg) and SZ37 (0.256 μmol) dissolved or dispersed in 5% αCD-added saline, and (5) OVA (10 μg) and SZ38 (0.256 μmol) dissolved or dispersed in 5% αCD-added saline, each per mouse. One week later, the secondary immunization was carried out by dorsal-subcutaneous administration of solutions or dispersions similar to those of the above-mentioned (1) to (5) again. […]

[4] = test system: anti OVA-specific IgE antibody; test: Allergy induction activity test: anti OVA-specific IgE antibody in serum; format: in vivo, BALB/c mice; conditions: dorsal-subcutaneous, compared to OVA single administration group
Description: 8-Week-old female BALB/c mice were divided into groups (N=6), and each group was primarily immunized by dorsal-subcutaneous administration of (1) ovalbumin (OVA) (10 μg) dissolved in saline as an antigen (OVA single administration group), (2) OVA (10 μg) and, as an adjuvant, N,N′-bis(2-heptylundecanoyl)-L-cystine dimethyl ester (SZ23) (2.56 μmol) (corresponding to 0.2 mg based on aluminum hydroxide gel adjuvant) dissolved in saline (SZ23; 2.56 μmol addition group), (3) OVA (10 μg) and SZ23; 0.256 μmol dissolved in saline (SZ23; 0.256 μmol addition group), (4) OVA (10 μg) and SZ23; 0.0256 μmol dissolved in saline (SZ23; 0.0256 μmol addition group), (5) OVA (10 μg) and aluminum hydroxide gel adjuvant (2.56 μmol) (0.2 mg) dissolved in saline (ALUM addition group, positive control), and (6) saline (saline single administration group), per each mouse. One week later, the secondary immunization was carried out by dorsal-subcutaneous administration of solutions similar to those of the above-mentioned (1) to (6) again. Two weeks from the secondary immunization, the whole blood and spleen were extracted under anesthesia, and the obtained serum sample was measured for anti OVA-specific IgG1 subclass antibody.
The serum sample obtained in Example 2 was measured for an anti OVA-specific IgE antibody. The measurement method of the anti OVA-specific IgE antibody is as follows.
DS mouse IgE ELISA (OVA) kit manufactured by DS Pharma Biomedical Co., Ltd. was used. The protocol is briefly shown below.
The serum sample and a standard reagent for drawing an analytical curve were diluted with a buffer and, after stirring, left standing at room temperature for 10 min. The sample and the standard solution were added to a plate bound with an IgE capture antibody in advance and, after stirring, the mixture was left standing at room temperature for 60 min. […] A reaction quenching liquid was added, the mixture was stirred, and the absorbance (OD Value=450 nm) was immediately measured.

[5] = test system: HA antigen (A/California/7/2009(H1N1)); format: in vivo, BALB/c mice; conditions: intranasal, twice, compared to influenza vaccine single administration group
[6] = test system: anti-influenza IgG antibody; test: Intranasal influenza vaccine adjuvant test: anti-influenza IgG antibody in nasal cavity wash; format: in vivo, BALB/c mice; conditions: 4.92 μg with influenza vaccine 20 μl, twice, compared to influenza vaccine single administration group
Description: (§1) 8-Week-old female BALB/c mice were divided into groups (N=6), and each group was primarily immunized by intranasal administration of (1) saline, (2) influenza vaccine (Influenza HA Vaccine “SEIKEN”, manufactured by Denka Seiken Co. Ltd.) (20 μl) diluted with saline (influenza vaccine single administration group) as an antigen, (3) influenza vaccine (20 μl) and N,N′-bis(octadecanoyl)-L-cystine dimethyl ester (SZ35) (0.55 μg) as an adjuvant diluted with saline, (4) influenza vaccine (20 μl) and N,N′-bis(octadecanoyl)-L-cystine dimethyl ester (SZ35) (1.64 μg) as an adjuvant diluted with saline, and (5) influenza vaccine (20 μl) and N,N′-bis(octadecanoyl)-L-cystine dimethyl ester (SZ35) (4.92 μg) as an adjuvant diluted with saline, each per mouse. […] The obtained serum samples were measured for anti-influenza IgG1 subclass antibody and HI titer assay (hemagglutination inhibition test) was performed. […]
(§2) 0.5 μg/ml influenza vaccine (Influenza HA Vaccine “SEIKEN”, manufactured by Denka Seiken Co. Ltd.) was added to a 96 well plate by 100 μl per well, and the mixture was incubated at 4° C. overnight. […] Thereafter, a reaction quenching liquid (2N sulfuric acid solution) was added (50 μl/well) to discontinue a color developing reaction, and the absorbance (OD Value=450 nm) was measured by a microplate reader.

[7] = test system: anti-influenza IgG1 subclass antibody; test: Intranasal influenza vaccine adjuvant test: anti-influenza IgG1 subclass antibody in serum; format: in vivo, BALB/c mice; conditions: twice, compared to influenza vaccine single administration group
Description: 8-Week-old female BALB/c mice were divided into groups (N=6), and each group was primarily immunized by intranasal administration of (1) saline, (2) influenza vaccine (Influenza HA Vaccine “SEIKEN”, manufactured by Denka Seiken Co. Ltd.) (20 μl) diluted with saline (influenza vaccine single administration group) as an antigen, (3) influenza vaccine (20 μl) and N,N′-bis(octadecanoyl)-L-cystine dimethyl ester (SZ35) (0.55 μg) as an adjuvant diluted with saline, (4) influenza vaccine (20 μl) and N,N′-bis(octadecanoyl)-L-cystine dimethyl ester (SZ35) (1.64 μg) as an adjuvant diluted with saline, and (5) influenza vaccine (20 μl) and N,N′-bis(octadecanoyl)-L-cystine dimethyl ester (SZ35) (4.92 μg) as an adjuvant diluted with saline, each per mouse. Two weeks later, the secondary immunization was carried out by intranasal administration of solutions similar to those of the above-mentioned (1) to (5) again. Two weeks from the secondary immunization, the whole blood was extracted under anesthesia, and nasal cavity washing was performed. The obtained serum samples were measured for anti-influenza IgG1 subclass antibody and HI titer assay (hemagglutination inhibition test) was performed. As a nasal cavity wash, thorax of mouse was opened to expose trachea, the trachea was incised, an Atom venous catheter with clause was inserted and 1 mL of saline was injected. The liquid discharged from the nose was centrifuged at 10000 g for 3 min, and the supernatant was recovered and used as a nasal cavity wash sample. The nasal cavity wash sample was subjected to the measurement of anti-influenza IgA antibody and IgG antibody. The measurement method was as follows.
as §2

[8] = test system: anti-influenza IgA antibody; test: Intranasal influenza vaccine adjuvant test: anti-influenza IgA antibody in nasal cavity wash; format: in vivo, BALB/c mice; conditions: 4.92 μg with influenza vaccine 20 μl, twice, compared to influenza vaccine single administration group
Description: as §1, §2

[9] = 0.256 μmol dispersed in 5% αCD-added saline with OVA 10 μg, compared to control (OVA in 5% αCD-added saline)
[10] = 2.56 μmol in saline with OVA 10 μg, primary + secondary immunization, serum two weeks after, compared to OVA single administration group
[11] = 0.55 μg with influenza vaccine 20 μl
[12] = 1.64 μg with influenza vaccine 20 μl
[13] = 4.92 μg with influenza vaccine 20 μl

CCCCCCCCCC(CCCCCCC)C(=O)N[C@@H](CSSC[C@H](NC(=O)C(CCCCCCC)CCCCCCCCC)C(=O)OC)C(=O)OC (stereo partly drawn) [SZ23, N,N′-bis(2-heptylundecanoyl)-L-cystine dimethyl ester]
cell proliferation (Stimulation Index) ([1]; final concentration 4 nM): significant cell proliferation | cell proliferation (Stimulation Index) ([1]; final concentration 400 nM): significant cell proliferation | cell proliferation (Stimulation Index) ([1]; final concentration 4 μM): significant cell proliferation | cell proliferation (Stimulation Index) ([2]; THP-1, final concentration 400 nM): significant cell proliferation | cell proliferation (Stimulation Index) ([2]; THP-1, final concentration 4 μM): significant cell proliferation | production of anti OVA-specific IgG1 subclass antibody ([3]; 0.0256 μmol in saline with OVA 10 μg, compared to OVA single administration group): significantly increased | production of anti OVA-specific IgG1 subclass antibody [3, 9]: significantly increased | production of anti OVA-specific IgG1 subclass antibody ([3]; 0.256 μmol in saline with OVA 10 μg, compared to OVA single administration group): significantly increased | production of anti OVA-specific IgG1 subclass antibody [3, 10]: significantly increased | production of anti OVA-specific IgG1 subclass antibody relative to ALUM addition group ([3]; all addition groups 2.56, 0.256 and 0.0256 μmol in saline, compared to aluminum hydroxide gel adjuvant 2.56 μmol (0.2 mg)): of the same level | production of anti OVA-specific IgE antibody ([4]; 0.0256 μmol in saline with OVA 10 μg): not observed | production of anti OVA-specific IgE antibody ([4]; 0.256 μmol in saline with OVA 10 μg): not observed | production of anti OVA-specific IgE antibody ([4]; 2.56 μmol in saline with OVA 10 μg): not observed

CCCCCCCCCCCCCCCCCC(=O)N[C@@H](CSSC[C@H](NC(=O)CCCCCCCCCCCCCCCCC)C(=O)OC)C(=O)OC [SZ35, N,N′-bis(octadecanoyl)-L-cystine dimethyl ester]
HI antibody value in the serum [5, 11]: significantly increase | HI antibody value in the serum [5, 12]: significantly increase | HI antibody value in the serum [5, 13]: significantly increase | production of anti-influenza IgG antibody in the nasal cavity wash [6]: significantly increased | production of anti-influenza IgG1 subclass antibody in the serum [7, 11]: significantly increased | production of anti-influenza IgG1 subclass antibody in the serum [7, 12]: significantly increased | production of anti-influenza IgG1 subclass antibody in the serum [7, 13]: significantly increased | production of anti-influenza IgA antibody in the nasal cavity wash [8]: significantly increased | production of anti OVA-specific IgG1 subclass antibody [3, 9]: significantly increased | production of anti OVA-specific IgG1 subclass antibody [3, 10]: significantly increased
